{"source": "patent US20240299584A1", "about": "“NON-CODING RNA PROTECTING AGAINST HEART FAILURE” (MEDIZINISCHE HOCHSCHULE HANNOVER, priority 2019, published 2024)", "key": {"[1]": {"tested_on": "HL-1 cells", "assay": "RT-qPCR expression in HL-1 cells", "type": "cell-based, mouse", "details": "for expression of circ-Insr: 24 h, epirubicin 1 and 5 μM, daunorubicin 1.25 and 2.5 μM, paclitaxel 0.1 and 0.5 μM", "description": "HL-1 cells were cultured in Claycomb medium together with 10% FBS, norepinephrine, L-Glutamine and pencillin/streptomycin as manufacturer's protocol. 3T3 and RAW264.7 cells were cultured in DMEM with 10% FBS and pencillin/streptomycin. Neonatal rat cardiomyocytes (NRCM) were isolated from one to three-day old rat babies by using the Neonatal Heart Dissociation Kit (Miltenyi). Human iPSC derived cardiomyocytes (hiPSC-cm) were differentiated at the lab of IMTTS. […] NRCM and hipsc-CM were transduced by AAV6 (MOI: 1*10^4) for 72 hours.\n(§1) RNA isolation from cell culture and heart tissue was done using Trifast (Peqlab) as per the manufacturer's instructions. Isolated RNA (500 ng-1000 ng) was reversed transcribed with random primer using iScript Select cDNA synthesis kit (Biorad). Real-Time quantative PCR was done with iQ SYBR Green mix (Biorad) on C1000 Touch Thermocycler (Biorad) using specific primer pairs. For amplification of circular RNAs, divergent primers were used while normal linear transcripts were amplified by convergent primers as usual. For RNase R resistant assay RNA was incubated with RNase R (Biozym Scientific) at 37° C. for 10 minutes and heat […] at 95° C. for three minutes. RNA was then reverse transcribed and amplified by specific PCR primers as mentioned before."}, "[2]": {"tested_on": "circulating circINSR", "assay": "circINSR level in mouse plasma", "type": "in vivo", "details": "doxorubicin vs PBS control", "text": "NcRNAs can be released into the extra-cellular space through passive mechanisms (e.g. necrosis of cells) or actively within secreted microvesicles^20. Since they can be readily isolated and measured from body fluids such as blood, these circulating ncRNAs have gained much attention as potential biomarkers for various diseases^21, 22. Indeed, ot was possible to detect circINSR in human and murine plasma (FIG. 9A,B). Strikingly, levels of circulating circINSR were diminished in mice treated with doxorubicin, which warrants further investigation of circINSR as a marker for anthracycline-related heart failure. Then the presence of circINSR in exosomes isolated from HL-1 cell culture supernatants was tested. […] To further corroborate the findings, a circINSR knock-out cell line was generated. Using a dual guideRNA CRISPR/Cas9 approach the majority of the circINSR forming exon was excised (FIG. 18A,B). Expectedly, this not only abrogated circINSR expression but also INSR protein expression (FIG. 18C,D). Then this cell line was used to overexpress circINSR via transfection with pcDNA3.1.\nRNA isolation from cell culture and heart tissue was done using Trifast (Peqlab) as per the manufacturer's instructions. Isolated RNA (500 ng-1000 ng) was reversed transcribed with random primer using iScript Select cDNA synthesis kit (Biorad). […]"}, "[3]": {"tested_on": "mouse heart", "assay": "RT-qPCR expression analysis in mouse heart tissue", "type": "in vivo", "description": "as §1"}, "[4]": {"tested_on": "apoptotic cardiomyocytes", "assay": "TUNEL and cardiac troponin T co-staining of heart sections", "type": "in vivo, mouse", "details": "transversal heart sections, doxorubicin model; circINSR given as AAV9", "description": "(§2) In addition to apoptosis, doxorubicin is known to cause cardiomyocyte atrophy^12 (G). Thus, histopathology analyses were performed on transversal heart section.\nCells were fixed with 4% paraformaldehyde for twenty minutes at room temperature and then permeabilized with ice-cold 0.1% Triton-X-100 in PBS for two minutes at room temperature. Next cells were incubated with enzyme labelling solution provided with In Situ cell death detection kit (Roche) for 1 hour at 37° C. For negative staining, enzyme was not added to the labelling solution. Cells were then washed and incubated with Dapi for 15 minutes. To specifically label neonatal rat cardiomyocytes and hipsc-CM, cells were co-stained with cardiac Troponin T (Thermofisher) after Tunel staining. Images were taken with Nikon Eclipse Ti microscope and images were analyzed with NIS Elements. For analysis in each case, ten different images were analyzed from different regions and average value was taken. Similarly, cryosections of heart were also processed for staining. Numerous images covering complete heart section was taken and Tunel positive nuclei were counted in each field. Average value for each heart was calculated."}, "[5]": {"assay": "Body weight changes in doxorubicin cardiotoxicity mouse model", "type": "in vivo", "details": "doxorubicin and vehicle treated mice", "procedure": "(§5) The AAV-circINSR construct was packaged into AAV9 and injected adult male mice (12 weeks) with a single dose of 2×10^12 viral genomes/mouse or with the same amount of AAV9-empty control vectors. After two weeks to allow full AAV mediated gene expression, the mice received a cumulative dose of 25 mg/kg/bw doxorubicin over a course of 5 weeks and were sacrificed 1 week later after echocardiography was performed (FIG. 4A).\n(§6) C57BL/6 N mice of 8 weeks of age were injected (intraperitoneally) with doxorubicin at a dose of 5 mg/kg once a week for consecutive 5 weeks. One week later after the last doxorubicin treatment, echocardiography data were recorded by an independent blinded researcher using the Vevo 2100 system (Fujifilm Visulasonics, Inc). […] Echocardiography data were analyzed using standard imaging protocols (M-mode and B-mode) for global cardiac volumes and functioning using the Vevostrain software (Fujifilm Visulasonics, Inc). […] AAV9 (adeno-associated virus serotype 9) was injected (intravenously) 2 weeks before first doxorubicin injection. Animal experiments were randomized and blinded with an internal number."}, "[6]": {"details": "human patients; cited from earlier work"}, "[7]": {"tested_on": "C57BL/6 N mice", "assay": "Echocardiography in mouse model of chronic doxorubicin-induced cardiotoxicity", "procedure": "as §5, §6"}, "[8]": {"tested_on": "HL-1 cells", "assay": "Mito-damage assay, mitochondrial membrane potential", "type": "cell-based, mouse", "details": "doxorubicin 0.25 μM 48 h", "description": "(§3) Based on the results of the foregoing examples, it was reasoned that circ-Insr could interact with SSBP1. To further confirm the interaction between circ-Insr and SSBP1, siRNA mediated circ-Insr knock-down was applied in HL-1 cells. Next, RNA pulldown was performed with circ-Insr and scramble biotinylated probes. RT-qPCR confirmed that decrease of circ-Insr appeared both in input and circ-Insr pulldown group (FIG. 23A). […] Therefore, we assumed that circ-Insr is a cofactor of SSBP1 resulting in the regulation of mitochondrial function in cardiomyocytes by stabilizing mtDNA. […] Furthermore, mito-damage assay was applied to measure the changes in mitochondrial membrane potential (MMP). […] Next, we co-transfected HL-1 cells with pcDNA-circ-Insr and SSBP1 siRNA and examined cell viability using the WST assay to explore whether SSBP1 participated in the circ-Insr overexpression-mediated therapy of doxorubicin-cardiotoxicity. RT-qPCR indicated SSBP1 siRNA could downregulate endogenous SSBP1 expression (FIG. 23G)."}, "[9]": {"tested_on": "cardiomyocytes", "assay": "Cardiomyocyte size on wheat germ agglutinin stained heart sections", "type": "in vivo, mouse", "details": "WGA stained heart sections, doxorubicin model; circINSR given as AAV9", "description": "as §2\nCryosections of heart were stained with Alexa Fluor 488 labelled wheat germ agglutinin (Invitrogen) and dapi. Images were taken with Nikon Eclipse Ti microscope and images were analyzed with NIS Elements. For each heart 5 to 10 images were randomly taken from different regions of the section and minimum two hundred cells were measured and average value was taken for each heart."}, "[10]": {"tested_on": "HL-1 cells", "assay": "Annexin V & 7-AAD staining (apoptosis)", "type": "cell-based, mouse", "details": "HL-1 cells treated with doxorubicin 0.25 μM 48 h", "description": "(§4) HL-1 cells were cultured in Claycomb medium together with 10% FBS, norepinephrine, L-Glutamine and pencillin/streptomycin as manufacturer's protocol. 3T3 and RAW264.7 cells were cultured in DMEM with 10% FBS and pencillin/streptomycin. Neonatal rat cardiomyocytes (NRCM) were isolated from one to three-day old rat babies by using the Neonatal Heart Dissociation Kit (Miltenyi). Human iPSC derived cardiomyocytes (hiPSC-cm) were differentiated at the lab of IMTTS. All the cells were treated with 0.25 μM Doxorubicin (Sigma-Aldrich) for 48 hours. circ-Insr siRNA (Eurofins), in vitro circular RNA and overexpression plasmid were transfected with Lipofectamine 2000 (Life Technologies) in OptiMEM medium. NRCM and hipsc-CM were transduced by AAV6 (MOI: 1*10^4) for 72 hours.\nFlowCellect Annexin Red kit (Millipore) was used to stain apoptotic cells as per the manufacturer instruction. Briefly, cells were seeded in 12 well plate and next day treated with 0.25 μM Doxorubicin in normal medium with 10% FBS for forty-eight hours. Then cells were trypsinized and harvested and stained with Annexin-V for 15 minutes at 37° C. in 1× assay buffer. Annexin-V stained cells were centrifuged and washed with 1× assay buffer. Next cells were incubated with 7-AAD for 5 minutes and acquired on Guava (Millipore) flow cytometer. Data was analyzed with FLOWJO software."}, "[11]": {"tested_on": "HL-1 cells", "assay": "mtDNA copy number measurement", "type": "cell-based, mouse", "details": "doxorubicin 0.25 μM 48 h, circ-Insr by overexpression plasmid", "description": "as §3\nThe ratio of mtDNA to genomic DNA was calculated by dividing copies of CYTB with copies of ACTB in each experiment (Li J, Chan M C, Yu Y, Bei Y H, Chen P, Zhou Q L, et al. miR-29b contributes to multiple types of muscle atrophy. Nature communications. 2017; 8). […] Fluorescence was measured during the last step of each cycle using the SYBR channel. […]"}, "[12]": {"tested_on": "HL-1 cells", "assay": "WST-1 assay (cell viability)", "type": "cell-based, mouse", "details": "HL-1 cells treated with doxorubicin 0.25 μM 48 h", "description": "as §4\nWST-1 assay was performed using Cell Proliferation Reagent WST-1 (Roche) as per the manufacturer instruction. Briefly, HL-1 cells were seeded in 96 well plate and next day treated with 0.25 μM Doxorubicin in normal medium with 10% FBS for forty-eight hours. Next, 10 μL WST1 reagent was added and incubated for 1 hour followed by the absorbance measurement (450 nm) at HT Synergy (Biotek) plate reader."}, "[13]": {"details": "doxorubicin treated mice, in words"}}, "note": "“Also recorded” adds a separate entry of the source.", "data": [{"smiles": "COc1cccc2c1C(=O)c1c(O)c3c(c(O)c1C2=O)C[C@@](O)(C(C)=O)C[C@@H]3O[C@H]1C[C@H](N)[C@H](O)[C@H](C)O1", "note": "[daunorubicin]", "values": [{"measurement": "expression of circ-Insr", "setting": "[1]", "result": "significant downregulation"}]}, {"smiles": "COc1cccc2c1C(=O)c1c(O)c3c(c(O)c1C2=O)C[C@@](O)(C(=O)CO)C[C@@H]3O[C@H]1C[C@H](N)[C@H](O)[C@H](C)O1", "note": "[doxorubicin]", "values": [{"measurement": "levels of circulating circINSR", "setting": "[2]", "result": "diminished"}, {"measurement": "Brca1 mRNA expression in hearts", "setting": "[3]; doxorubicin treated mice vs PBS control", "result": "significantly lower levels"}, {"measurement": "circINSR expression in heart", "setting": "[3]; mouse heart, doxorubicin 5 mg/kg once a week for 5 weeks", "result": "significant decrease; also recorded: downregulation"}, {"measurement": "apoptotic cardiomyocytes (TUNEL / cTNT)", "setting": "[4]", "result": "strong induction of apoptosis"}, {"measurement": "body weight", "setting": "[5]", "result": "significantly halted the weight gain"}, {"measurement": "underlying cause in heart transplantation patients, share of all cases", "setting": "[6]", "result": "2-3%"}, {"measurement": "Fractional Shortening", "setting": "[7]; Mean, mice with doxorubicin, cumulative 25 mg/kg over 5 weeks", "result": "significant reduction"}, {"measurement": "left ventricular anterior and posterior wall thickness", "setting": "[7]; [13]", "result": "decreased"}, {"measurement": "left ventricular volume", "setting": "[7]; [13]", "result": "increased"}, {"measurement": "mitochondrial membrane potential (MMP)", "setting": "[8]", "result": "impair"}, {"measurement": "cardiomyocyte size", "setting": "[9]", "result": "atrophic response"}, {"measurement": "apoptotic cells (Annexin V)", "setting": "[10]", "result": "increased the number of apoptotic cells"}, {"measurement": "mtDNA copy number / mtDNA content", "setting": "[11]", "result": "significantly reduced"}, {"measurement": "cell viability (WST-1)", "setting": "[12]", "result": "significantly diminished; also recorded: impair"}, {"measurement": "circINSR expression", "setting": "[1]; doxorubicin 0.25 μmol/L 48 h", "result": "downregulation"}]}, {"smiles": "COc1cccc2c1C(=O)c1c(O)c3c(c(O)c1C2=O)C[C@@](O)(C(=O)CO)C[C@@H]3O[C@H]1C[C@H](N)[C@@H](O)[C@H](C)O1", "note": "[epirubicin]", "values": [{"measurement": "expression of circ-Insr", "setting": "[1]", "result": "significant downregulation"}]}, {"smiles": "CC(=O)O[C@H]1C(=O)[C@@]2(C)[C@H]([C@H](OC(=O)c3ccccc3)[C@]3(O)C[C@H](OC(=O)[C@H](O)[C@@H](NC(=O)c4ccccc4)c4ccccc4)C(C)=C1C3(C)C)[C@]1(OC(C)=O)CO[C@@H]1C[C@@H]2O", "note": "[paclitaxel]", "values": [{"measurement": "expression of circ-Insr", "setting": "[1]", "result": "no change"}]}]}
